Data published in article PMC4004252 (Journal of the American Chemical Society, 2014).

Tests used:
ctDNA = ctDNA absorption spectroscopy titration of ethidium bromide; type: binding, calf; details: value for EB in main text
Top1 [1] = target: T1, Top1 (Homo sapiens, UniProt P11387); type: biochemical
T1 sequence (P11387 1-765): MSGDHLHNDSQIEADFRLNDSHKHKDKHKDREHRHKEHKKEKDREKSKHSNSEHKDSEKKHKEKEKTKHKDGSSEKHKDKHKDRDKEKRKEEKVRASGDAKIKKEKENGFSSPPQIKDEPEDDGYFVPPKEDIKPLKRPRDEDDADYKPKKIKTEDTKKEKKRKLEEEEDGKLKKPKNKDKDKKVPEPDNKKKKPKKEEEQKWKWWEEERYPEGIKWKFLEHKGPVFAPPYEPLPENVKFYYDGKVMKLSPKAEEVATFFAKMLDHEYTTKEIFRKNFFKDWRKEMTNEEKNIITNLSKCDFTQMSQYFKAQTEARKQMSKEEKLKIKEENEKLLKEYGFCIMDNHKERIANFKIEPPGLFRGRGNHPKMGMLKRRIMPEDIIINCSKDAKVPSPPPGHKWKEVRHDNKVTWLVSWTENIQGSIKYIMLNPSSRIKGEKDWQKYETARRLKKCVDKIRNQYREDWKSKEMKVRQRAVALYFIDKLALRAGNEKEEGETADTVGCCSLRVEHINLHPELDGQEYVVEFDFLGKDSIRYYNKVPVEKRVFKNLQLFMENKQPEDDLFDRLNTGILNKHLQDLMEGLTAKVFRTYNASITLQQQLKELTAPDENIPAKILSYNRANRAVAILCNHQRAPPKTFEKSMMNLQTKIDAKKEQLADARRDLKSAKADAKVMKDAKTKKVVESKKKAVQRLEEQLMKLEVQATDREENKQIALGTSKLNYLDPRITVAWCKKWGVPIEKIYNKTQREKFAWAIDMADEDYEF

[2] = system: relaxed pHOT1 plasmid DNA; test: DNA unwinding assay, relaxed pHOT1 as substrate; type: biochemical; details: 10 units Top1, 37 °C
Top1 [3] = target: T1, Top1; test: Standard Top1 scDNA relaxation assay; type: biochemical

## CC[n+]1c(-c2ccccc2)c2cc(N)ccc2c2ccc(N)cc21 [EB, ethidium bromide]
ctDNA
  KA, ctDNA affinity constant: 5(1) × 10^6 M^–1 bp

## O=C1c2c(O)ccc(O)c2C(=O)c2c(NCCNCCO)ccc(NCCNCCO)c21 [MTX, mitoxantrone]
Top1 [1]
  dose at which switch to catalytic inhibition of Top1 occurs: 1 to 10 µM
Top1 [1]; doses of 0.1 and 1 μM
  PicoGreen relative fluorescence readout: positive

## COc1cc(NS(C)(=O)=O)ccc1Nc1c2ccccc2nc2ccccc12 [m-AMSA, 4′-(9-acridinylamino)methanesulfon-m-anisidide]
[2]
  concentration giving the Gaussian distribution of DNA topoisomers: 50 µM
Top1 [3]
  dose giving complete inhibition of the enzyme: 50 µM
